The results in this text go back to patent publication US9034856B2, “17-(1′propenyl)-17-3′-oxidoestra-4-en-3-one derivative, use thereof, and medicament containing said derivative” (Bayer Intellectual Property GmbH, priority 2007, dated 2015).

pEC50, pIC50: −log10 of the molar value. Read-outs that look alike come from different tables or passages of the source.

For experiment [1], the target named is T1, mineralocorticoid receptor (Homo sapiens (Human), UniProt P08235). As to the kind of experiment: Antimineralocorticoid action by transactivation test (MDCK reporter cells). It is filed as cell-based. As to conditions: for pIC50: read-out: Mineralocorticoid receptor Antagonism IC50; for Emax: read-out: Mineralocorticoid receptor Antagonism efficacy. As to the method: 5. Determination of Antimineralocorticoid Action by Means of Transactivation Tests:
The antimineralocorticoid activity of the test substances was determined as for the transactivation tests described above.
The following modifications were undertaken: In this case reporter cell lines were used (MDCK cells) that express the human mineralocorticoid receptor, and transiently contain a reporter construct that contains luciferase under the control of a steroid hormone-responsive promoter.

Experiment [2] deals with T2, androgen receptor (Homo sapiens (Human), UniProt P10275). As to the kind of experiment: Androgen receptor binding test. As to conditions: reference 3H-testosterone, Hi5 cytosol; for pIC50: read-out: Androgen receptor IC50.
Method: Androgen Receptor Binding Test:
The test was carried out as in 1., with the following modifications: cytosol from androgen receptor-expressing insect cells (Hi5) was used, and the reference substance was ^3H-testosterone.
For the next experiment, the target named is progesterone receptor (Homo sapiens (Human), UniProt P06401). As to the kind of experiment: Progesterone receptor binding test. To be noted: for Progesterone receptor (PR) Competition factor: CF 1 = affinity of progesterone, CF > 1 lower affinity; for pIC50: displacement of 3H-progesterone, cytosol from PR-expressing Hi5 insect cells; for CF PR/CF MR: ratio of competition factors CF(PR) and CF(MR). As to the method:
1. Progesterone Receptor Binding Test:
Using cytosol from progesterone receptor-expressing insect cells (Hi5), competitive binding to the progesterone receptor was determined from the ability to displace ^3H-progesterone as reference substance from the receptor.

The target of experiment [3] is T2, androgen receptor. Put plainly: Androgenic/antiandrogenic action by transactivation test (PC3 reporter cells). Format: cell-based. To be noted: for pIC50: 0.05 nM R1881, read-out: Androgen receptor Antagonism IC50; for pEC50: read-out: Androgen receptor Agonism EC50. As to the method: 6. Determination of Androgenic/Antiandrogenic Action by Means of Transactivation Tests:
The androgenic/antiandrogenic action of the test substances was determined as for the transactivation tests described above.
The following modifications were made: In this case reporter cell lines were used (PC3 cells) that express the androgen receptor, and a reporter construct that contains luciferase under the control of a steroid hormone-responsive promoter.
For determination of the antiandrogenic efficacy, 0.05 nM R1881 was added to the cells, in order to achieve almost maximum stimulation of the reporter gene.

In experiment [4] the target is T1, mineralocorticoid receptor. Put plainly: Mineralocorticoid receptor binding test. As to conditions: reference 3H-aldosterone, Hi5 cytosol. From the text:
2. Mineralocorticoid Receptor Binding Test:

For experiment [5], the target named is fusion protein from the PR-ligand-binding domain and a Gal4-transactivation domain (Homo sapiens, UniProt P06401). Put plainly: Progestational action by transactivation test (CHO K1 reporter cells). As to conditions: CHO K1 luciferase reporter, 16 hours incubation; for pEC50: read-out: Progesterone receptor Agonism EC50; for Emax: read-out: Progesterone receptor Agonism efficacy. It is filed as cell-based. As to the method: 4. Determination of Progestational Action by Means of Transactivation Tests:
The test compounds were added eight hours later, and the cells were incubated with the compounds for 16 hours. The tests were carried out in triplicate. At the end of incubation the medium containing the effector was removed and replaced with lysis buffer. After luciferase assay substrate (Promega, #E1501) had been added, the 96-well plates were then put in a microplate luminometer (Pherastar, BMG Labtech), and the luminescence was measured. The IC50 values were evaluated using software for calculating dose-effect relations.

The mark [6] stands for this setting: MDCK reporter cells, 1 nM aldosterone.
[7] abbreviates: 0.05 nM R1881, read-out: Androgen receptor Antagonism efficacy.
Where [8] appears, read: read-out: Androgen receptor Agonism efficacy.

progesterone receptor, sequence (P06401 whole entry, species assumed): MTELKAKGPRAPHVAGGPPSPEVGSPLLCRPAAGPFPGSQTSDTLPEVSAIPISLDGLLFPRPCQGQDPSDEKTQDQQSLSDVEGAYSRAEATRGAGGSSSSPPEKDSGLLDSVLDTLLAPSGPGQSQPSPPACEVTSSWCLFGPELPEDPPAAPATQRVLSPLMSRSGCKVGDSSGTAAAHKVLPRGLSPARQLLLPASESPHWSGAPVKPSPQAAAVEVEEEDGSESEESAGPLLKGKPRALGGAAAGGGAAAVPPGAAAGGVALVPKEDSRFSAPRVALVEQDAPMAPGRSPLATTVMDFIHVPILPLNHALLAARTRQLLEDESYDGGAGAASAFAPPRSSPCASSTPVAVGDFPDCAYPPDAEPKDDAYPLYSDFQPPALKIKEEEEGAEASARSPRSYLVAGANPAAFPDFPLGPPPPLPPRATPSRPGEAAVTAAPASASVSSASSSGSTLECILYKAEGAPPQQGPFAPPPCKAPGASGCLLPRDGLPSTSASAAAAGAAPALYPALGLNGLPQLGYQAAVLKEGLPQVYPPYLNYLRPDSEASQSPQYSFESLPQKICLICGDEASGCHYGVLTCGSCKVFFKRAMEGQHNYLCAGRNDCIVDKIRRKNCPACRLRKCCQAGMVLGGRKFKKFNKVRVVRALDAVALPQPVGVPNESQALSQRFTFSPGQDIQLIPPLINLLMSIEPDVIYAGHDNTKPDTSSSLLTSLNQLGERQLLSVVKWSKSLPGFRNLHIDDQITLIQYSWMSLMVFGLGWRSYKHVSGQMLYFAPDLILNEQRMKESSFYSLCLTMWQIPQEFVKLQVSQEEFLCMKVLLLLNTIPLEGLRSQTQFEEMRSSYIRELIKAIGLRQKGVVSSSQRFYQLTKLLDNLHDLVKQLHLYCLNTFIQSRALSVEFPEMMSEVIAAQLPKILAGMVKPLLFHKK
fusion protein from the PR-ligand-binding domain and a Gal4-transactivation domain, sequence (P06401 679-913): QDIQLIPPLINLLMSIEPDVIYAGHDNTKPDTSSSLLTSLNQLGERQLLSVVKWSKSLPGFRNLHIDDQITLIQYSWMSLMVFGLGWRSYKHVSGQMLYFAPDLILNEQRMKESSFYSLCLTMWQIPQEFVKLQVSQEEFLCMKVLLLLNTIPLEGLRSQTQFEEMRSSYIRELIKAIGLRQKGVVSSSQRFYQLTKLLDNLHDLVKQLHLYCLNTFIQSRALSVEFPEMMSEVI
T2 sequence (P10275 whole entry, species assumed): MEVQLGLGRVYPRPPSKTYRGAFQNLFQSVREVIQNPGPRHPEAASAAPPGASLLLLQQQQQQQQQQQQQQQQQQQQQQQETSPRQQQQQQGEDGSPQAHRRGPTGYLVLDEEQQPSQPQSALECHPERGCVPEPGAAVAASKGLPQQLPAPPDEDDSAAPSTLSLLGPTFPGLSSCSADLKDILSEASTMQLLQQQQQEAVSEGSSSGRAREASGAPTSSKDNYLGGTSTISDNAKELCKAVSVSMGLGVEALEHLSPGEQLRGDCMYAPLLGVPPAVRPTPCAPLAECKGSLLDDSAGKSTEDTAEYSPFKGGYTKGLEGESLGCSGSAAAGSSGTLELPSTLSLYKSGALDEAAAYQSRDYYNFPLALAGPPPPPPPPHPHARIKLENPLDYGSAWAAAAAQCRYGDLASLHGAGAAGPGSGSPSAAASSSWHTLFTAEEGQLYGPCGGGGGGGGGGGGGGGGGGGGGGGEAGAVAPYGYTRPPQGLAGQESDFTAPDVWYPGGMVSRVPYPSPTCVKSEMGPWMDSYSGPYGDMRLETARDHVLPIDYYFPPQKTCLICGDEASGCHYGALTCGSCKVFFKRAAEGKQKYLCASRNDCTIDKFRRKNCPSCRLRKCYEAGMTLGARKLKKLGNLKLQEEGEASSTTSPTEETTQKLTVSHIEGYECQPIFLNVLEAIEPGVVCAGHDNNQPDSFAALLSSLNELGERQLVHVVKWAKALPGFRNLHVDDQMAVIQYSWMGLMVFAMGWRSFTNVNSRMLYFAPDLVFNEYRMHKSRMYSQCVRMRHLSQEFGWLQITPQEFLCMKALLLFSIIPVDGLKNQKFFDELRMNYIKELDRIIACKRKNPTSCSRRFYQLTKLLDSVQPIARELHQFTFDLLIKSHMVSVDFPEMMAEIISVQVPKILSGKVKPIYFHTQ
T1 sequence (P08235 whole entry): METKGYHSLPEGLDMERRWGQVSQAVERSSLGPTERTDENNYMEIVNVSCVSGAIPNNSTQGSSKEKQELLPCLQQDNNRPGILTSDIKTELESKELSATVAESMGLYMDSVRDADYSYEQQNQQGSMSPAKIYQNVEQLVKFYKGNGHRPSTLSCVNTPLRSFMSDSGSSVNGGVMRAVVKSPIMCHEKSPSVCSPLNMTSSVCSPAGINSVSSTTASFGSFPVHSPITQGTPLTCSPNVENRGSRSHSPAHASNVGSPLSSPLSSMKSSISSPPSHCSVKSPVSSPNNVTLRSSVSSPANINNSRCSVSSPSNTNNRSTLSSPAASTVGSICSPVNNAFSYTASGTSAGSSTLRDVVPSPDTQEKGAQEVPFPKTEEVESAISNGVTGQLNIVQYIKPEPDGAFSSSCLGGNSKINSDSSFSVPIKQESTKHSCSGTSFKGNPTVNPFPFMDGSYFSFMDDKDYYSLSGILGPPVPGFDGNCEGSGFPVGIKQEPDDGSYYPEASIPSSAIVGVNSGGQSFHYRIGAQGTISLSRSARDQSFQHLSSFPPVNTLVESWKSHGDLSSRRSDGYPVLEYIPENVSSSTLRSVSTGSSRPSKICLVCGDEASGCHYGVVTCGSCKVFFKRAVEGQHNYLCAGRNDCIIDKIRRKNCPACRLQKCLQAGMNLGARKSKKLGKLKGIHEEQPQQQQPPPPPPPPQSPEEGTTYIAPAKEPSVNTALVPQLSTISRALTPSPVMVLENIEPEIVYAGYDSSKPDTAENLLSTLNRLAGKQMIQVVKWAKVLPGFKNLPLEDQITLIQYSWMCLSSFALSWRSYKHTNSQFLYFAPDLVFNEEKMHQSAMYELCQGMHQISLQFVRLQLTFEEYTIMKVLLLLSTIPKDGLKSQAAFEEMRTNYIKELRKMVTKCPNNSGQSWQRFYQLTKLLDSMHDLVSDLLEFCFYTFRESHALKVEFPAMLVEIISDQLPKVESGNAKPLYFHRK

Regarding `CC[C@]12CC[C@H]3[C@@H](CCC4=CC(=O)CC[C@@H]43)[C@@H]1CC[C@@]21C=CCO1` (stereo in doubt) [Example 7, 18-Methyl-17α-(1′-propenyl)-17β-3′-oxidoestra-4-en-3-one], the pIC50 is 8.30 in experiment [1] (setting [6]), 8.28 at progesterone receptor and 6.80 at androgen receptor [3]. Besides, the Emax came out at 87.8% in experiment [1] (setting [6]), 25.4% at androgen receptor [3] (setting [7]) and 78.3% at androgen receptor [3] (setting [8]). The “Androgen receptor Competition factor” value at androgen receptor [2] worked out at 0.5. The “Progesterone receptor (PR) Competition factor” value (“Progesterone receptor” for short) on progesterone receptor is reported as 0.19. The “CF PR/CF MR” value on progesterone receptor is recorded as 0.12. For the same compound, the pEC50 on androgen receptor [3] is 8.43. Also, the “Mineralocorticoid receptor (MR) Competition factor” value in experiment [4] amounted to 1.6.

Turning to `CC[C@]12CC[C@H]3[C@@H]([C@H](C4CC4)CC4=CC(=O)CC[C@@H]43)[C@@H]1CC[C@@]21C=CCO1` [Example 12, 7α-Cyclopropyl-18-methyl-17α-(1′-propenyl)-17β-3′-oxidoestra-4-en-3-one], in experiment [1] (MDCK reporter cells, 1 nM aldosterone, cell spans IC50 and efficacy), the “Mineralocorticoid receptor Antagonism (result in words)” value was “Partial agonist”. On progesterone receptor, the “Progesterone receptor” value is on record as 8.51 and the pIC50 is 6.68. Moreover, at androgen receptor [3] (setting [7]), the Emax stood at 5%. The Emax on androgen receptor [3] (setting [8]) turned out to be 70.1%. In addition, in experiment [5], the pEC50 was 7.26 and the Emax came to 30.9%. Besides, in experiment [4], the “Mineralocorticoid receptor (MR) Competition factor” value came out at 2.0.

Turning to `CC[C@@H]1CC2=CC(=O)CC[C@@H]2[C@H]2CC[C@@]3(C)[C@@H](CC[C@@]34C=CCO4)[C@H]12` [Example 4, 7α-Ethyl-17α-(1′-propenyl)-17β-3′-oxidoestra-4-en-3-one], the pIC50 was 6.51 in experiment [1] (setting [6]), 7.19 at androgen receptor [2], 6.89 on progesterone receptor and 6.00 on androgen receptor [3]. Moreover, the Emax in experiment [1] (setting [6]) worked out at 82.2%; at androgen receptor [3] (setting [7]) it was 5%; at androgen receptor [3] (setting [8]), 62.3%; in experiment [5], 65.1%. For the same compound, on androgen receptor [2], the “Androgen receptor Competition factor” value is 2.9. Also, the “Progesterone receptor” value on progesterone receptor was 11.75. Also, the “CF PR/CF MR” value on progesterone receptor is 2.87. In addition, the pEC50 is 8.14 on androgen receptor [3] and 7.17 in experiment [5]. For the same compound, the “Mineralocorticoid receptor (MR) Competition factor” value in experiment [4] turned out to be 4.1.

As for `CC[C@@H]1CC2=CC(=O)CC[C@@H]2[C@H]2CC[C@@]3(CC)[C@@H](CC[C@@]34C=CCO4)[C@H]12` [Example 10, 7α-Ethyl-18-methyl-17α-(1′-propenyl)-17β-3′-oxidoestra-4-en-3-one], the pIC50 in experiment [1] (setting [6]) was 6.07; on androgen receptor [2] it was 6.96; at progesterone receptor, 6.77; on androgen receptor [3] it was 6.00. The Emax came to 39.2% in experiment [1] (setting [6]), 5% on androgen receptor [3] (setting [7]), 70.4% at androgen receptor [3] (setting [8]) and 26.4% in experiment [5]. Also, the “Androgen receptor Competition factor” value on androgen receptor [2] amounted to 4.1. The “Progesterone receptor” value at progesterone receptor was found to be 7.03. The “CF PR/CF MR” value on progesterone receptor is 6.39. Moreover, the pEC50 on androgen receptor [3] was 8.03; in experiment [5], 6.11. The “Mineralocorticoid receptor (MR) Competition factor” value in experiment [4] was 1.1.

For `CC[C@]12CC[C@H]3[C@@H](C=CC4=CC(=O)CC[C@@H]43)[C@@H]1CC[C@@]21C=CCO1` (stereo in doubt) [Example 8, 18-Methyl-17α-(1′-propenyl)-17β-3′-oxidoestra-4,6-dien-3-one], the pIC50 in experiment [1] (setting [6]) is 7.18. In addition, the Emax in experiment [1] (setting [6]) amounted to 112%; on androgen receptor [3] (setting [7]), 5%; at androgen receptor [3] (setting [8]) it was 62%; in experiment [5], 12.3%. On progesterone receptor, the “Progesterone receptor” value is given as 1.78. Moreover, the pEC50 in experiment [5] was 8.96. The “Mineralocorticoid receptor (MR) Competition factor” value in experiment [4] is 1.2.

In the case of `C[C@@H]1CC2=CC(=O)CC[C@@H]2[C@H]2CC[C@@]3(C)[C@@H](CC[C@@]34C=CCO4)[C@@H]21` [Example 3, 7α-Methyl-17α-(1′-propenyl)-17β-3′-oxidoestra-4-en-3-one], the pIC50 in experiment [1] (setting [6]) is 7.77; on progesterone receptor, 7.21. The Emax in experiment [1] (setting [6]) was 112%; on androgen receptor [3] (setting [7]), 5%; at androgen receptor [3] (setting [8]) it was 80.2%; in experiment [5] it was 61.6%. Further, the “Progesterone receptor” value on progesterone receptor stood at 2.41. The pEC50 in experiment [5] is 8.43. Moreover, the “Mineralocorticoid receptor (MR) Competition factor” value in experiment [4] is 3.2.

As for `C[C@]12CC[C@H]3[C@@H](C=CC4=CC(=O)CC[C@@H]43)[C@@H]1CC[C@@]21C=CCO1` (stereo in doubt) [Example 2, 17α-(1′-Propenyl)-17β-3′-oxidoestra-4,6-dien-3-one], the pIC50 in experiment [1] (setting [6]) is 7.04; on progesterone receptor it was 7.26. The Emax amounted to 136% in experiment [1] (setting [6]), 34.4% on androgen receptor [3] (setting [7]), 31.9% at androgen receptor [3] (setting [8]) and 36.4% in experiment [5]. Further, on progesterone receptor, the “Progesterone receptor” value is listed as 2.29. Also, in experiment [5], the pEC50 is 8.54. For the same compound, the “Mineralocorticoid receptor (MR) Competition factor” value in experiment [4] worked out at 8.9.

On to `C[C@]12CCC(=O)C=C1[C@@H]1C[C@@H]1[C@H]1[C@@H]3[C@@H]4C[C@@H]4[C@@]4(CCC(=O)O4)[C@@]3(C)CC[C@@H]12` [A, 6β,7β-15β,16β-dimethylene-3-oxo-17-pregn-4-ene-21,17β-carbolactone, reference compound], for which the Emax in experiment [1] (MDCK) came out at 64.1%; in experiment [5], 72.2%. On progesterone receptor, the “Progesterone receptor” value amounted to 2.7. Besides, the “Mineralocorticoid receptor (MR) Competition factor” value in experiment [4] was found to be 0.5.

As for `C[C@]12CC[C@H]3[C@@H](CCC4=CC(=O)CC[C@@H]43)[C@@H]1CC[C@@]21C=CCO1` (stereo in doubt) [Example 1, 17α-(1′-Propenyl)-17β-3′-oxidoestra-4-en-3-one], the pIC50 was 7.51 in experiment [1] (setting [6]) and 8.52 on progesterone receptor. Besides, the Emax in experiment [1] (setting [6]) amounted to 83%; on androgen receptor [3] (setting [7]), 29%; at androgen receptor [3] (setting [8]) it was 62.7%. In addition, on progesterone receptor, the “Progesterone receptor” value was 0.46. Moreover, in experiment [4], the “Mineralocorticoid receptor (MR) Competition factor” value amounted to 2.6.

Regarding `C[C@]12CC[C@H]3[C@@H](CCC4=CC(=O)CC[C@@H]43)[C@@H]1CC1(CC1)[C@@]21C=CCO1` (stereo in doubt) [Example 6, 16,16-Ethylene-17α-(1′-propenyl)-17β-3′-oxidoestra-4-en-3-one], the pIC50 was 6.00 in experiment [1] (setting [6]) and 6.96 at progesterone receptor. The Emax in experiment [1] (setting [6]) came to 65.1%; at androgen receptor [3] (setting [7]) it was 70.1%; at androgen receptor [3] (setting [8]), 49.7%. The “Progesterone receptor” value on progesterone receptor amounted to 3.41. In addition, the “Mineralocorticoid receptor (MR) Competition factor” value in experiment [4] is 22.9.
